The values that follow come from patent US9067905B2, “Sulphone compounds and methods of making and using same” (Zafgen, Inc., priority 2009, dated 2015).

The term IC50 denotes the concentration needed to halve the response being measured.

In this assay the target is T1, recombinant human MetAP2 (Homo sapiens, UniProt P50579).
T1 construct: Flag; made in house; host or cells: Sf9 insect cells
The experiment in a line: Inhibition of recombinant human MetAP2 activity (Amplex red fluorescence assay). The assay is classed as biochemical. The conditions noted are these: manganese Flag-MetAP2, 0.75 mM Methionine-Alanine-Serine substrate, 30 minutes at 25° C., pH 7.5, 1% DMSO. How it is done: Compounds are tested for their capacity to inhibit recombinant human MetAP2 activity using the following assay.
Human recombinant Flag-MetAP2 expressed in Sf9 cells followed by affinity purification and EDTA treatment to remove endogenous active site cation is dialysed against MnCl2 to produce the manganese enzyme used in the assay. The assay is carried out for 30 minutes at 25° C. in 50 mM HEPES buffer containing 100 mM NaCl, pH 7.5 the presence of 0.75 mM Methionine-Alanine-Serine (MAS) substrate and 50 μg/ml amino acid oxidase using a dilution of purified MetAP2 giving approximately 50,000 RFU control activity. Cleavage of the substrate by MetAP2 and oxidation of free methionine by amino acid oxidase is detected and quantified using fluorescence generated by Amplex red (10-acetyl-3,7-dihydroxyphenoxazine) in combination with horseradish peroxidase which detects H2O2 released during the oxidation step. The fluorescent signal is detected using a multiwell fluorimeter. Compounds are diluted in DMSO prior to addition to assay buffer, the final DMSO concentration in the assay being 1%.
The IC50 is defined as the concentration at which a given compound achieves 50% inhibition of control. IC50 values are calculated using the XLfit software package (version 2.0.5).

Each structure is given as a SMILES string.

T1 sequence (P50579 whole entry): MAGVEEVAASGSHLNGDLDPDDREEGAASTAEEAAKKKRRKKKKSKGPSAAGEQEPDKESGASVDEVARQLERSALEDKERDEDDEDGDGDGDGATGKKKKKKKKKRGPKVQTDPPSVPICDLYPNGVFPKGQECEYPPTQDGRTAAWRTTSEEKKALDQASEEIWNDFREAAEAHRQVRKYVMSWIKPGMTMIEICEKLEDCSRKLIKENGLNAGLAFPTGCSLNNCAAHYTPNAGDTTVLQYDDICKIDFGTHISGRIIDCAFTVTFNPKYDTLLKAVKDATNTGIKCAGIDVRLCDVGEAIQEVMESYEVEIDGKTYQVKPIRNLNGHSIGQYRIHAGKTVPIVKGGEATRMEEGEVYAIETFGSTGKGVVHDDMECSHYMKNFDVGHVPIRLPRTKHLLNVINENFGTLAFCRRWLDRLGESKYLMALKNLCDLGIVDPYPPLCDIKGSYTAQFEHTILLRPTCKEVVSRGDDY

Regarding `CCN(CC)C/C=C\c1ccccc1S(=O)(=O)Cc1ccc(-c2ccoc2)c(OC)c1C(=O)O` [(Z)-6-((2-(3-(Diethylamino)prop-1-enyl)benzenesulfonyl)methyl)-3-(furan-3-yl)-2-methoxybenzoic acid], the half-maximal inhibitory concentration (IC50) is below 200 nM.

On to `CCN(CC)CC1CCN1c1ccccc1S(=O)(=O)Cc1ccc(-c2ccoc2)c(OC)c1C(=O)O` (centres unmarked) [6-[2-(2-Diethylaminomethylazetidin-1-yl)-benzenesulphonylmethyl]-3-(furan-3-yl)-2-methoxybenzoic acid], for which the 50% inhibitory concentration (IC50) was above 2000 nM.

As for `COc1ccccc1S(=O)(=O)Cc1ccc(-c2ccoc2)c(OC)c1C(=O)O` [3-(Furan-3-yl)-2-methoxy-6-(2-methoxybenzenesulphonylmethyl)-benzoic acid], the half-maximal inhibitory concentration (IC50) fell in the range of 200 to 2000 nM.

As to `COc1c(-c2ccoc2)ccc(CS(=O)(=O)c2ccccn2)c1C(=O)O` [3-(Furan-3-yl)-2-methoxy-6-(pyridin-2-ylsulphonylmethyl)benzoic acid], the concentration for half-maximal inhibition (IC50) is below 200 nM.

On to `CCc1ccc(C[S+]([O-])c2ccccc2)c(C(=O)O)c1OC` (centres unmarked) [6-(Benzenesulphinylmethyl)-3-ethyl-2-methoxy-benzoic acid], for which the half-inhibitory concentration (IC50) was above 2000 nM.

In the case of `CCc1c(-c2ccoc2)ccc(CS(=O)(=O)c2ccccc2)c1C(=O)O` [6-(Benzenesulphonylmethyl)-2-ethyl-3-(furan-3-yl)benzoic acid], the half-maximal inhibitory concentration (IC50) lay within 200 to 2000 nM.

Regarding `COc1c(-c2ccoc2)ccc(CS(=O)(=O)c2cccc(F)c2)c1C(=O)O` [6-(3-Fluorobenzenesulphonylmethyl)-3-(furan-3-yl)-2-methoxybenzoic acid], the IC50 is below 200 nM.

For the molecule `O=C(O)c1c(CS(=O)(=O)c2ccccc2)ccc(-c2ccoc2)c1O` [6-(benzenesulphonylmethyl)-3-(furan-3-yl)-2-hydroxybenzoic acid], the IC50 is above 2000 nM.

On to `CCOc1c(-c2ccoc2)ccc(CS(=O)(=O)c2ccccc2)c1C(=O)O` [6-(Benzenesulphonylmethyl)-2-ethoxy-3-(furan-3-yl)benzoic acid], for which the half-inhibitory concentration (IC50) was in the range of 200 to 2000 nM.

Take `CCc1ccc(CS(=O)(=O)c2ccc(Cl)cc2)c(C(=O)O)c1OC` [6-(4-Chlorobenzenesulphonylmethyl)-3-ethyl-2-methoxy-benzoic acid]: the IC50 is above 2000 nM.

Turning to `O=C(O)c1c(CS(=O)(=O)c2ccccc2)ccc2ccccc12` [2-(Benzenesulphonylmethyl)naphthalene-1-carboxylic acid], the IC50 lay in the range of 200 to 2000 nM.

As for `N#CCNc1c(-c2ccoc2)ccc(CS(=O)(=O)c2ccccc2)c1C(=O)O` [6-(Benzenesulphonylmethyl)-2-(cyanomethylamino)-3-(furan-3-yl)benzoic acid], the IC50 is below 200 nM.

Regarding `COc1c(-c2cocn2)ccc(CS(=O)(=O)c2ccccc2)c1C(=O)O` [6-(Benzenesulphonylmethyl)-3-(oxazol-4-yl)-2-methoxybenzoic acid], the IC50 was above 2000 nM.

Take `COc1c(-c2cccnc2)ccc(CS(=O)(=O)c2ccccc2)c1C(=O)O` [6-(Benzenesulphonylmethyl)-2-methoxy-3-(3-pyridyl)benzoic acid]: the IC50 is above 2000 nM.
